Test: in vitro
Conditions: human, hek293t cells

Row | Structure (SMILES) | viability at 48 h, 25 µM
1 | N#CC(=Cc1cccc(O)c1)C(=O)Nc1ccccc1C(=O)O [9-O16, 2-[2-cyano-3-(3-hydroxyphenyl)prop-2-enamido]benzoic acid] | 125%
2 | N#CC(=Cc1ccc(C#N)cc1)C(=O)Nc1ccccc1Cl [9-O17, N-(2-chlorophenyl)-2-cyano-3-(4-cyanophenyl)prop-2-enamide] | 131%
3 | Cc1cccc(NC(=O)C(C#N)=Cc2cnc3ccc(C#N)cn23)c1 [9-O18, 2-cyano-3-{6-cyanoimidazo[1,2-a]pyridin-3-yl}-N-(3-methylphenyl)prop-2-enamide] | 132%
4 | COc1cc(C=C(C#N)C(=O)NC2CC2)cc(OC)c1O [9-O19, 2-cyano-N-cyclopropyl-3-(4-hydroxy-3,5-dimethoxyphenyl)prop-2-enamide] | 124%
5 | N#CC(=Cc1ccccc1[N+](=O)[O-])C(=O)Nc1ccc2c(c1)OCCO2 [9-O20, 2-cyano-N-(2,3-dihydro-1,4-benzodioxin-6-yl)-3-(2-nitrophenyl)prop-2-enamide] | 108%
6 | Cc1ccc(-n2c(C)cc(C=C(C#N)C(=O)N3CCCCC3)c2C)cc1 [9-O21, 3-[2,5-dimethyl-1-(4-methylphenyl)-1H-pyrrol-3-yl]-2-(piperidine-1-carbonyl)prop-2-enenitrile] | 87.8%
7 | Cc1ccc(C)c(C=C(C#N)C(=O)NC(C)C)c1 [9-O22, 2-cyano-3-(2,5-dimethylphenyl)-N-(propan-2-yl)prop-2-enamide] | 125%
8 | N#CC(=Cc1cccc(F)c1)C(=O)Nc1cc(Cl)ccc1Cl [9-P03, 2-cyano-N-(2,5-dichlorophenyl)-3-(3-fluorophenyl)prop-2-enamide] | 109%
9 | Cc1cc(C=C(C#N)C(=O)N2CC[C@H](O)C2)c(C)n1CC1CCCO1 (stereo partly drawn) [9-P04, 3-{2,5-dimethyl-1-[(oxolan-2-yl)methyl]-1H-pyrrol-3-yl}-2-[(3S)-3-hydroxypyrrolidine-1-carbonyl]prop-2-enenitrile] | 131%
10 | CCOc1ccccc1NC(=O)C(C#N)=Cc1ccc2c(c1)OCO2 [9-P05, 3-(1,3-dioxaindan-5-yl)-2-cyano-N-(2-ethoxyphenyl)prop-2-enamide] | 136%
11 | N#CC(=Cc1c(F)cccc1Cl)C(=O)Nc1ccc(C(=O)O)cc1 [9-P06, 4-[3-(2-chloro-6-fluorophenyl)-2-cyanoprop-2-enamido]benzoic acid] | 142%
12 | C=CCNC(=O)C(C#N)=Cc1sccc1C [9-P07, 2-cyano-3-(3-methylthiophen-2-yl)-N-(prop-2-en-1-yl)prop-2-enamide] | 117%
13 | COc1cc(C=C(C#N)C(=O)Nc2ccccn2)ccc1O [9-P08, 2-cyano-3-(4-hydroxy-3-methoxyphenyl)-N-(pyridin-2-yl)prop-2-enamide] | 124%
14 | CCN1C(=O)C(=Cc2ccc(-c3ccc(F)cc3)o2)C(C)=C(C#N)C1=O [9-P09, 1-ethyl-5-{[5-(4-fluorophenyl)furan-2-yl]methylidene}-4-methyl-2,6-dioxo-1,2,5,6-tetrahydropyridine-3-carbonitrile] | 127%
15 | Cc1ccc(C=C(C#N)C(=O)Nc2nccs2)o1 [9-P10, 2-cyano-3-(5-methylfuran-2-yl)-N-(1,3-thiazol-2-yl)prop-2-enamide] | 126%
16 | Cc1ccccc1NC(=O)C(C#N)=Cc1cc2c(cc1[N+](=O)[O-])OCO2 [9-P11, 2-cyano-N-(2-methylphenyl)-3-(6-nitro-1,3-dioxaindan-5-yl)prop-2-enamide] | 120%
17 | COC(=O)c1ccc(C=C(C#N)C(=O)NC(C)C)n1C [9-P12, methyl 5-{2-cyano-2-[(propan-2-yl)carbamoyl]eth-1-en-1-yl}-1-methyl-1H-pyrrole-2-carboxylate] | 115%
18 | CCCCNC(=O)C(C#N)=Cc1ccc(F)cc1 [9-P13, N-butyl-2-cyano-3-(4-fluorophenyl)prop-2-enamide] | 124%
19 | Cc1ccc(C=C(C#N)C(=O)Nc2ccc(C(=O)N(C)C)cc2)o1 [9-P14, 4-[2-cyano-3-(5-methylfuran-2-yl)prop-2-enamido]-N,N-dimethylbenzamide] | 119%
20 | N#CC(=Cc1cn2cc(Cl)ccc2n1)C(=O)NC1CCCC1 [9-P15, 3-{6-chloroimidazo[1,2-a]pyridin-2-yl}-2-cyano-N-cyclopentylprop-2-enamide] | 120%
21 | CNC(=O)C(C#N)=Cc1cc(C)n(-c2cccc3ccccc23)c1C [9-P16, 2-cyano-3-[2,5-dimethyl-1-(naphthalen-1-yl)-1H-pyrrol-3-yl]-N-methylprop-2-enamide] | 109%
22 | N#CC(=Cc1cc(Cl)ccc1O)C(=O)Nc1cccc2ccccc12 [9-P17, 3-(5-chloro-2-hydroxyphenyl)-2-cyano-N-(naphthalen-1-yl)prop-2-enamide] | 130%
23 | N#CC(=Cc1cnc2ccccn12)C(=O)NCc1ccccc1 [9-P18, N-benzyl-2-cyano-3-{imidazo[1,2-a]pyridin-3-yl}prop-2-enamide] | 127%
24 | COc1ccccc1NC(=O)C(C#N)=Cc1sccc1C [9-P19, 2-cyano-N-(2-methoxyphenyl)-3-(3-methylthiophen-2-yl)prop-2-enamide] | 133%
25 | CC(C)Oc1ccccc1C=C(C#N)C(=O)Nc1cccc(Cl)c1 [9-P20, N-(3-chlorophenyl)-2-cyano-3-[2-(propan-2-yloxy)phenyl]prop-2-enamide] | 107%
26 | N#CC(=Cc1ccc(C#N)cc1)C(=O)N1CCCC1 [9-P21, 4-[2-cyano-2-(pyrrolidine-1-carbonyl)eth-1-en-1-yl]benzonitrile] | 117%
27 | C/C(O)=C(\C#N)C(=O)Nc1ccc(-c2ccccc2Cl)cc1 [9-P22, (2Z)-N-{2'-chloro-[1,1'-biphenyl]-4-yl}-2-cyano-3-hydroxybut-2-enamide] | 107%

Row | Structure (SMILES) | viability at 48 h, 25 µM
28 | O=C1C=CC(=O)N1c1ccccc1Sc1ccc(Cl)cc1 [10-A03, 1-{2-[(4-chlorophenyl)sulfanyl]phenyl}-2,5-dihydro-1H-pyrrole-2,5-dione] | 7.21%
29 | CC1Cc2cc(C(=O)CCl)ccc2N1S(C)(=O)=O (centres unmarked) [10-A04, 2-chloro-1-(1-methanesulfonyl-2-methyl-2,3-dihydro-1H-indol-5-yl)ethan-1-one] | 0.28%
30 | COc1ccc(CCN2C(=O)C=CC2=O)cc1 [10-A05, 1-[2-(4-methoxyphenyl)ethyl]-2,5-dihydro-1H-pyrrole-2,5-dione] | 5.85%
31 | Cc1cc(C(=O)C(C)Cl)c(C)n1-c1ccccc1 (centres unmarked) [10-A06, 2-chloro-1-(2,5-dimethyl-1-phenyl-1H-pyrrol-3-yl)propan-1-one] | 99.9%
32 | COC(=O)c1sccc1N1C(=O)C=CC1=O [10-A07, methyl 3-(2,5-dioxo-2,5-dihydro-1H-pyrrol-1-yl)thiophene-2-carboxylate] | 16.6%
33 | CC(Cl)C(=O)c1ccc(NS(C)(=O)=O)cc1 (centres unmarked) [10-A08, N-[4-(2-chloropropanoyl)phenyl]methanesulfonamide] | 93.7%
34 | Cc1ccc(C(=O)CCl)o1 [10-A09, 2-chloro-1-(5-methylfuran-2-yl)ethan-1-one] | 48.3%
35 | CCOC(=O)c1[nH]c(C)c(C(=O)CCl)c1C [10-A10, ethyl 4-(2-chloroacetyl)-3,5-dimethyl-1H-pyrrole-2-carboxylate] | 0.365%
36 | CC(=O)Nc1c(C)cc(C)c(C(=O)CCl)c1C [10-A12, N-[3-(2-chloroacetyl)-2,4,6-trimethylphenyl]acetamide] | 98.1%
37 | Cc1cc(C(=O)CCl)co1 [10-A13, 2-chloro-1-(5-methylfuran-3-yl)ethan-1-one] | 41.5%
38 | CCOc1ccc(N2C(=O)C=CC2=O)cc1 [10-A14, 1-(4-ethoxyphenyl)-2,5-dihydro-1H-pyrrole-2,5-dione] | 4.27%
39 | O=C(CCl)Cc1ccc(Cl)cc1Cl [10-A15, 1-chloro-3-(2,4-dichlorophenyl)propan-2-one] | 0.248%
40 | O=C(CCl)c1c[nH]c(C(=O)N2CCCC2)c1 [10-A16, 2-chloro-1-[5-(pyrrolidine-1-carbonyl)-1H-pyrrol-3-yl]ethan-1-one] | 0.377%
41 | CC(Cl)C(=O)c1ccc(F)c(F)c1 (centres unmarked) [10-A17, 2-chloro-1-(3,4-difluorophenyl)propan-1-one] | 66.4%
42 | O=C1C=CC(=O)N1c1ccc(SC(F)F)cc1 [10-A18, 1-{4-[(difluoromethyl)sulfanyl]phenyl}-2,5-dihydro-1H-pyrrole-2,5-dione] | 3.22%
43 | O=C(CCl)C1CC12CCCCC2 (centres unmarked) [10-A19, 2-chloro-1-{spiro[2.5]octan-1-yl}ethan-1-one] | 86.3%
44 | Cn1ncc2ccc(CNC(=O)N3CCSSCC3)cc21 [10-A20, N-[(1-methyl-1H-indazol-6-yl)methyl]-1,2,5-dithiazepane-5-carboxamide] | 93.8%
45 | NC(=O)Cc1ccc(C(=O)CCl)s1 [10-A21, 2-[5-(2-chloroacetyl)thiophen-2-yl]acetamide] | 46.6%
46 | Cc1cccc(-n2c(C)cc(C(=O)CCl)c2C)c1 [10-A22, 2-chloro-1-[2,5-dimethyl-1-(3-methylphenyl)-1H-pyrrol-3-yl]ethan-1-one] | 0.013%
47 | CC(=O)NCCc1ccc(C(=O)C(C)Cl)cc1 (centres unmarked) [10-B03, N-{2-[4-(2-chloropropanoyl)phenyl]ethyl}acetamide] | 85.1%
48 | Cn1cccc1C(=O)CCl [10-B04, 2-chloro-1-(1-methyl-1H-pyrrol-2-yl)ethan-1-one] | 64.6%
49 | O=C(CCl)c1c[nH]c2ccccc12 [10-B05, 2-chloro-1-(1H-indol-3-yl)ethan-1-one] | 111%
50 | O=C(CCl)c1ccc(NC(=O)c2ccccc2)cc1 [10-B06, N-[4-(2-chloroacetyl)phenyl]benzamide] | 1.37%
51 | O=C(O)c1coc(C(=O)CCl)c1 [10-B07, 5-(2-chloroacetyl)furan-3-carboxylic acid] | 107%
52 | Cc1cc(C(=O)CCl)c(C)n1CC1CCCO1 (centres unmarked) [10-B08, 2-chloro-1-{2,5-dimethyl-1-[(oxolan-2-yl)methyl]-1H-pyrrol-3-yl}ethan-1-one] | 54.2%
53 | N#Cc1ccc(N2C(=O)C=CC2=O)cc1 [10-B09, 4-(2,5-dioxo-2,5-dihydro-1H-pyrrol-1-yl)benzonitrile] | 82.1%

From publication PMC11995724, “Antibiotic target discovery by integrated phenotypic and activity-based profiling of electrophilic fragments” (Cell chemical biology, 2025)
